Here are results for one compound from paper PMC9865752, “Design and Synthesis of (Z)-2-(Benzylamino)-5-benzylidenethiazol-4(5H)-one Derivatives as Tyrosinase Inhibitors and Their Anti-Melanogenic and Antioxidant Effects” (Molecules, 2023).

Experiment [1] is described as follows: DPPH radical scavenging assay. Particulars: test samples 500 µM; DPPH 0.18 mM; 30 min in the dark. Here is the method: DPPH is a light-sensitive compound containing free radicals. The DPPH assay is one of the most common methods for evaluating the antioxidant activity of a compound. The effects of BABT derivatives on DPPH radical scavenging activities were evaluated using L-ascorbic acid as a positive reference control. DPPH radical scavenging activities were measured after leaving the mixed samples (test samples of 500 µM plus DPPH solution of 0.18 mM) in the dark for 30 min. To determine the radical scavenging activities, the absorbance of the mixed samples was measured at 517 nm.
According to previously described methods, with minor modifications, the DPPH radical scavenging activities of BABT derivatives 1–14 were measured. A DPPH (0.2 mM) and methanol solution (180 µL) was mixed with 20 µL of a DMSO solution containing 5 mM BABT derivative, or with 20 µL of an aqueous solution of 5 mM L-ascorbic acid, in each well of a 96-well plate and kept at ambient temperature in the dark for 30 min. The optical density of each well was measured at 517 nm using a microplate reader (VersaMax; Molecular Devices). L-Ascorbic acid was used as a positive reference control, and the DPPH radical scavenging abilities of BABT derivatives were compared with those of L-ascorbic acid. All experiments were performed independently, thrice.
In general terms: Loss of DPPH colour is used to gauge radical scavenging.

The test system of experiment [2] is microphthalmia-associated transcription factor (MITF). Description: Western blotting of MITF protein expression. It is filed as cell-based, murine. Here is the method:
We investigated whether, in addition to the direct inhibition of tyrosinase, another inhibitory mechanism of melanogenesis by derivative 8 may be related to the expression of proteins involved in melanogenesis. For the Western blotting experiment, B16F10 cells were treated with α-MSH (1 µM) plus IBMX (200 µM), leading to a 1.7- and 4.9-fold increase in expression levels of melanogenesis-associated proteins tyrosinase and MITF, compared to those in the untreated control (100%) (Figure 13).
B16F10 cells were seeded in a 60 mm dish at a density of 5 × 10^5 cells/mL for 24 h, washed with cold PBS, and harvested. Cytosolic and nuclear fractions of cell lysates were extracted using lysis buffer, as described previously. Protein concentrations in the cell lysates were estimated using the BCA protein assay (Pierce, Rockford, IL, USA). […] The membranes were washed and protein bands detected using the SuperSignal West Pico Chemiluminescence assay kit (Advansta, San Jose, CA, USA) and the Davinch–Chem program (Davinch-K, Seoul, Republic of Korea). Immunoblotting data were quantified using CS Analyzer 3.2 (Densitograph) image analysis software (http://www.attokorea.co.kr, accessed on 21 November 2022).

On to `O=C1N=C(NCc2ccccc2)S/C1=C\c1ccc(O)cc1O` [Compound 8, (Z)-2-(benzylamino)-5-(2,4-dihydroxybenzylidene)thiazol-4(5H)-one], for which the “DPPH radical scavenging activity, % inhibition” value in experiment [1] is 76%. Besides, the “relative expression level of MITF protein” value in experiment [2] (10 µM, α-MSH plus IBMX treated B16F10 cells) is “lowered the protein expression to the same or lower control levels”; in experiment [2] (5, 10 and 20 µM, α-MSH (1 µM) plus IBMX (200 µM) treated B16F10 cells), “significantly reduced the relative expression levels of tyrosinase and MITF in a dose-dependent manner”.
